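Method: 48-hour compound exposure of cells in 96-well plates, five concentrations, linear interpolation of endpoints. Abbreviation: GI50, concentration required for 50% inhibition of growth.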 Calls of active or inactive are those of the source. Cut-off read from the data, not from the text of the source: active = GI50 up to about 1.1 µM and inactive = higher.
Experiments:
Assay in all cases: growth of human tumour cells (NCI), 48 h
[1] = tested on: SN12C
[2] = tested on: U-251
[3] = tested on: CAKI-1
[4] = tested on: K562
[5] = tested on: NCI-H226
[6] = tested on: TK-10
[7] = tested on: SNB-19
[8] = tested on: CCRF-CEM
[9] = tested on: OVCAR-8
[10] = tested on: M19-MEL
[11] = tested on: OVCAR-5
[12] = tested on: NCI-H460
[13] = tested on: HCT-15
[14] = tested on: RXF 393
[15] = tested on: LOX IMVI
[16] = tested on: MCF7
[17] = tested on: BT-549
[18] = tested on: NCI/ADR-RES
[19] = tested on: PC-3
[20] = tested on: DU-145

Compound | GI50 [1] | GI50 [2] | GI50 [3] | GI50 [4] | GI50 [5] | GI50 [6] | GI50 [7] | GI50 [8] | GI50 [9] | GI50 [10] | GI50 [11] | GI50 [12] | GI50 [13] | GI50 [14] | GI50 [15] | GI50 [16] | GI50 [17] | GI50 [18] | GI50 [19] | GI50 [20]
Cc1c(C(=O)CC(=O)C(=O)Nc2ccc(Cl)cc2)[n+]([O-])c2ccccc2[n+]1[O-] | > 100 µM (inactive) | > 100 µM (inactive) | > 100 µM (inactive) | > 100 µM (inactive) | > 100 µM (inactive) | > 100 µM (inactive) | > 100 µM (inactive) | > 100 µM (inactive) | > 100 µM (inactive) | > 100 µM (inactive) | > 100 µM (inactive) | > 100 µM (inactive) | > 100 µM | – | – | – | – | – | – | –
Nc1ccc(C(c2ccccc2)(c2ccccc2)c2ccccc2)cc1 | 66.5 µM (inactive) | 29.7 µM (inactive) | – | 70.6 µM (inactive) | – | 20.2 µM (inactive) | – | 29.6 µM (inactive) | 33.9 µM (inactive) | 55.8 µM (inactive) | – | 28.8 µM (inactive) | 78.7 µM | 10.3 µM (inactive) | 47.6 µM (inactive) | – | – | – | – | –
Cc1cc(C)nc(NS(=O)(=O)c2ccc(NC(=O)c3cccc4c(Nc5ccc(S(=O)(=O)N=C(N)N)cc5)c5ccc(Cl)cc5nc34)cc2)n1 | 29.8 µM (inactive) | 15.8 µM (inactive) | – | 26.2 µM (inactive) | – | 40 µM (inactive) | 23.1 µM (inactive) | 21.4 µM (inactive) | 39.4 µM (inactive) | 53.7 µM (inactive) | > 100 µM (inactive) | 42.8 µM (inactive) | 39.4 µM | 18.9 µM (inactive) | 19.8 µM (inactive) | – | – | – | – | –
CCCCCCCCCCCCCCCC(=O)NCC(OCC)OCC | > 100 µM (inactive) | > 100 µM (inactive) | – | – | > 100 µM (inactive) | > 100 µM (inactive) | > 100 µM (inactive) | > 100 µM (inactive) | > 100 µM (inactive) | > 100 µM (inactive) | > 100 µM (inactive) | > 100 µM (inactive) | > 100 µM | > 100 µM (inactive) | > 100 µM (inactive) | – | – | – | – | –
COc1ccc2c(c1)CN1CCc3c(cc(OC)c(OC)c3OC)C1C2 (stereo not given) | > 100 µM (inactive) | > 100 µM (inactive) | > 100 µM (inactive) | 57.5 µM (inactive) | > 100 µM (inactive) | > 100 µM (inactive) | > 100 µM (inactive) | 74.6 µM (inactive) | > 100 µM (inactive) | > 100 µM (inactive) | 64.1 µM (inactive) | – | > 100 µM | > 100 µM (inactive) | – | – | – | – | – | –
COC(=O)C(C(=O)C(=O)Nc1ccc(N)cc1[N+](=O)[O-])c1nc2ccc(Cl)cc2nc1O (stereo not given) | > 100 µM (inactive) | – | > 100 µM (inactive) | > 100 µM (inactive) | 63 µM (inactive) | > 100 µM (inactive) | > 100 µM (inactive) | 92.5 µM (inactive) | > 100 µM (inactive) | > 100 µM (inactive) | > 100 µM (inactive) | > 100 µM (inactive) | > 100 µM | 60.7 µM (inactive) | > 100 µM (inactive) | – | – | – | – | –
COc1ccc(C2S/C(=C\c3ccccc3)C(=O)N2NC(=O)Cc2ccccc2)cc1 (stereo not given) | > 100 µM (inactive) | > 100 µM (inactive) | > 100 µM (inactive) | > 100 µM (inactive) | > 100 µM (inactive) | > 100 µM (inactive) | – | 49.3 µM (inactive) | > 100 µM (inactive) | > 100 µM (inactive) | > 100 µM (inactive) | > 100 µM (inactive) | 40.7 µM | > 100 µM (inactive) | > 100 µM (inactive) | – | – | – | – | –
Cc1cccc(C(C)(C)C)c1NC(=O)CC1C(=O)Nc2ccccc2S1(=O)=O (stereo not given) | 12.3 µM (inactive) | 8.28 µM (inactive) | 16.8 µM (inactive) | 2.84 µM (inactive) | 16.7 µM (inactive) | 20.5 µM (inactive) | 15.5 µM (inactive) | 2.34 µM (inactive) | 10.6 µM (inactive) | 12.4 µM (inactive) | 13 µM (inactive) | 11 µM (inactive) | 4.76 µM | 13.4 µM (inactive) | 5.98 µM (inactive) | – | – | – | – | –
CC(C)(C)N/N=C(\C(=O)Nc1nnc(S)[nH]1)C1C(=O)Nc2ccccc2[S+]1[O-] (stereo not given) | > 100 µM (inactive) | > 100 µM (inactive) | > 100 µM (inactive) | > 100 µM (inactive) | > 100 µM (inactive) | > 100 µM (inactive) | > 100 µM (inactive) | > 100 µM (inactive) | > 100 µM (inactive) | > 100 µM (inactive) | > 100 µM (inactive) | > 100 µM (inactive) | > 100 µM | > 100 µM (inactive) | > 100 µM (inactive) | – | – | – | – | –
C[C@]12CCc3nonc3C1CC[C@@H]1C2CC[C@]2(C)NC(=O)CCC12 (stereo not given in full) | > 100 µM (inactive) | > 100 µM (inactive) | > 100 µM (inactive) | > 100 µM (inactive) | > 100 µM (inactive) | > 100 µM (inactive) | > 100 µM (inactive) | > 100 µM (inactive) | > 100 µM (inactive) | > 100 µM (inactive) | > 100 µM (inactive) | > 100 µM (inactive) | > 100 µM | > 100 µM (inactive) | > 100 µM (inactive) | – | – | – | – | –
O=C(CC1Sc2ccccc2NC1=O)Nc1cc(Cl)ccc1Cl (stereo not given) | > 100 µM (inactive) | 49.9 µM (inactive) | > 100 µM (inactive) | > 100 µM (inactive) | > 100 µM (inactive) | > 100 µM (inactive) | > 100 µM (inactive) | 31.2 µM (inactive) | > 100 µM (inactive) | > 100 µM (inactive) | > 100 µM (inactive) | > 100 µM (inactive) | > 100 µM | > 100 µM (inactive) | > 100 µM (inactive) | – | – | – | – | –
O=C1c2ccccc2-c2ccccc2C(=O)C1(Br)Br | 11.8 µM (inactive) | 15.8 µM (inactive) | 5.87 µM (inactive) | 4.13 µM (inactive) | 17.7 µM (inactive) | 10.6 µM (inactive) | 17.7 µM (inactive) | 2.52 µM (inactive) | 11 µM (inactive) | 8.69 µM (inactive) | 18.1 µM (inactive) | 19.1 µM (inactive) | 12.4 µM | 3.56 µM (inactive) | 9.27 µM (inactive) | – | – | – | – | –
O=C(NC(=O)c1cc2cc(Br)cc(Br)c2oc1=O)Oc1ccccc1 | 61.2 µM (inactive) | 28.2 µM (inactive) | 43 µM (inactive) | > 100 µM (inactive) | 78.2 µM (inactive) | 47.9 µM (inactive) | 59.8 µM (inactive) | > 100 µM (inactive) | 46.5 µM (inactive) | > 100 µM (inactive) | > 100 µM (inactive) | > 100 µM (inactive) | > 100 µM | 28.2 µM (inactive) | 63.2 µM (inactive) | – | – | – | – | –
O=C(CCc1nnc(S)[nH]1)Nc1cc(Cl)ccc1Cl | > 100 µM (inactive) | > 100 µM (inactive) | > 100 µM (inactive) | > 100 µM (inactive) | > 100 µM (inactive) | > 100 µM (inactive) | > 100 µM (inactive) | > 100 µM (inactive) | > 100 µM (inactive) | > 100 µM (inactive) | > 100 µM (inactive) | > 100 µM (inactive) | > 100 µM | – | – | – | – | – | – | –
CC(=O)O[C@H]1CC[C@@]2(C)C(=CC[C@@H]3[C@@H]2CC[C@]2(C)c4c(C)nn(-c5ccccc5)c4C[C@@H]32)C1 | 33.3 µM (inactive) | 20.7 µM (inactive) | 20.9 µM (inactive) | 2.65 µM (inactive) | 36.6 µM (inactive) | 22.8 µM (inactive) | 31 µM (inactive) | 11.2 µM (inactive) | 40.7 µM (inactive) | – | 22.2 µM (inactive) | 13.8 µM (inactive) | 37.1 µM | 5.42 µM (inactive) | 12.3 µM (inactive) | 32.8 µM (inactive) | 9.95 µM (inactive) | 34.9 µM (inactive) | 26.7 µM (inactive) | 17 µM (inactive)
COCOC1/C=C/CCCCC(=O)C(C)C#CC1 (stereo not given) | 6.27 µM (inactive) | 14.4 µM (inactive) | 5.09 µM (inactive) | 2.97 µM (inactive) | 17.2 µM (inactive) | 8 µM (inactive) | 17.8 µM (inactive) | 1.87 µM (inactive) | 4.18 µM (inactive) | – | 12.8 µM (inactive) | 7.13 µM (inactive) | 2.36 µM | 3.06 µM (inactive) | 2.19 µM (inactive) | 3.89 µM (inactive) | 6.97 µM (inactive) | 4.18 µM (inactive) | 11.4 µM (inactive) | 12.8 µM (inactive)
CCOC(=O)NC(OCCN(C)C)(C(F)(F)F)C(F)(F)F | > 100 µM (inactive) | > 100 µM (inactive) | > 100 µM (inactive) | > 100 µM (inactive) | > 100 µM (inactive) | > 100 µM (inactive) | > 100 µM (inactive) | > 100 µM (inactive) | > 100 µM (inactive) | – | > 100 µM (inactive) | > 100 µM (inactive) | > 100 µM | 9.79 µM (inactive) | > 100 µM (inactive) | > 100 µM (inactive) | > 100 µM (inactive) | > 100 µM (inactive) | > 100 µM (inactive) | > 100 µM (inactive)
COc1ccc(/C(=N/O)c2ccccc2-c2nc3ccccc3c(=O)n2-c2ccc(S(=O)(=O)Nc3ncccn3)cc2)cc1C | > 30.2 µM (inactive) | 11.8 µM (inactive) | 21.1 µM (inactive) | 12.2 µM (inactive) | > 10 µM (inactive) | 21.8 µM (inactive) | 20.8 µM (inactive) | 13.6 µM (inactive) | 18.4 µM (inactive) | – | 24.5 µM (inactive) | 15.6 µM (inactive) | 14 µM | 11.1 µM (inactive) | > 10 µM (inactive) | 13.2 µM (inactive) | 17.6 µM (inactive) | 11.6 µM (inactive) | 19.7 µM (inactive) | 21.1 µM (inactive)
